Laboratory results: patent publication US20260070899A1, “N-(2-(4-CYANOTHIAZOLIDIN-3-YL)-2-OXOETHYL)-QUINOLINE-4-CARBOXAMIDES” (AstraZeneca AB, priority 2022, published 2026)

Experiments:
[1] = molecular target: T1, Prolyl endopeptidase, Prolyl Oligopeptidase (hPREP) (Homo sapiens, UniProt P48147); experiment: biochemical
T1 sequence (P48147 1-710): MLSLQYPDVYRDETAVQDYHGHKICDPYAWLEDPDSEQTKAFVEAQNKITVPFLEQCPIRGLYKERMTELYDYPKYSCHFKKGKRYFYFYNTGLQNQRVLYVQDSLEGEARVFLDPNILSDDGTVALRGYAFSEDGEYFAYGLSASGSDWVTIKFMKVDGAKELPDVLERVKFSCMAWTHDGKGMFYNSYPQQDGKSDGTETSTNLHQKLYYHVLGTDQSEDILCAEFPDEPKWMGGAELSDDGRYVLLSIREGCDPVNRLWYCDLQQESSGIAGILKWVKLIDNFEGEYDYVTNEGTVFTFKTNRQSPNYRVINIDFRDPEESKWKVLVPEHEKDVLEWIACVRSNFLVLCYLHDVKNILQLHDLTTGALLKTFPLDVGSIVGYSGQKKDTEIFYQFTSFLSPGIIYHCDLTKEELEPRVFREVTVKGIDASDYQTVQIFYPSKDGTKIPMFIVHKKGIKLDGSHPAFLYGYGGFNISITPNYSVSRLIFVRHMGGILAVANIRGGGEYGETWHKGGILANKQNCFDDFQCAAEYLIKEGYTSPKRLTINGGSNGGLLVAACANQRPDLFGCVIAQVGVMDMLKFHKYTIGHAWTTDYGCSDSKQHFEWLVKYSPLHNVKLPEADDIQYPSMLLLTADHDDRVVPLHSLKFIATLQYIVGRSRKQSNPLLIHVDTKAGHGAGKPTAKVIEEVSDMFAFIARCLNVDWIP

[2] = molecular target: T2, hFAP (M39-A757) (Homo sapiens, UniProt Q12884); experiment: biochemical;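 also: surface plasmon resonance direct binding to hFAP amine-coupled on a sensor chip, rising compound concentrations by single cycle kinetics, Kd from global fit of interaction models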
T2 sequence (Q12884 39-757): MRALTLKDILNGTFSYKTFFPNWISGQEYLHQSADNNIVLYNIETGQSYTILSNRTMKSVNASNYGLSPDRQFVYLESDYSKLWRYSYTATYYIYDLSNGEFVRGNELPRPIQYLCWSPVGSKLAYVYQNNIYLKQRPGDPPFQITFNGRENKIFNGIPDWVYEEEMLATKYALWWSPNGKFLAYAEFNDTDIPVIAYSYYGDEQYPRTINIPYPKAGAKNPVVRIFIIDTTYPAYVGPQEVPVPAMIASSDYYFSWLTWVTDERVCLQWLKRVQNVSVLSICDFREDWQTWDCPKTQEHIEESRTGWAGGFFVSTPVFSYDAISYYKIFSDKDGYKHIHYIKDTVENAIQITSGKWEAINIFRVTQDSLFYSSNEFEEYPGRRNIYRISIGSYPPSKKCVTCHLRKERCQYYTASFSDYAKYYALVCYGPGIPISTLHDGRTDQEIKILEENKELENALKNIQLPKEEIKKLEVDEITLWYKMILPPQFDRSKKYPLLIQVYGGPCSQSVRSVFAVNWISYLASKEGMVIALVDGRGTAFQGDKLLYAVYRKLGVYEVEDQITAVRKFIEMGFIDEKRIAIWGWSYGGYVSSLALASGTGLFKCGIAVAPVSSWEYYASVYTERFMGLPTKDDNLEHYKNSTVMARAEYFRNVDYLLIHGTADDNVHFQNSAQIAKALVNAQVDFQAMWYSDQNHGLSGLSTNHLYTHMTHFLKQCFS
Experimental: Compounds were tested in a direct binding assay using 8K surface plasmon resonance biosensor (GE Healthcare) at 20° C. Immobilization of hFAP (M39-A757) on a CMD200M sensor chip (Xantec) was performed using standard amine coupling procedure in immobilization buffer (10 mM HEPES, 150 mM NaCl, 0.05% Tween20, pH 7.4). The surface was washed with 10 mM aq NaOH, 1M NaCl before being activated with EDC/NHS (GE Healthcare), followed by immobilization of hFAP (in 10 mM Acetate pH 5.0). Finally, the surface was deactivated by ethanolamine. Immobilization levels of hFAP were around 4000-6000 RU. The reference spot was treated as described, omitting the injection of hFAP. Compound concentration series were injected over the immobilized protein in increasing concentrations (2-500 nM) using single cycle kinetics in running buffer (20 mM TRIS, 150 mM NaCl, 0.05% Tween20, 1% DMSO, pH 7.4). Interaction models were fitted globally to the experimental traces, enabling determination of kon, koff and Kd.

Structure (SMILES)	IC50 [1] [nM]	Kd [2] [nM]
N#C[C@@H]1CSCN1C(=O)CNC(=O)c1ccnc2ccc(C3(F)CCC3)cc12 [Example 75, (R)—N-(2-(4-Cyanothiazolidin-3-yl)-2-oxoethyl)-6-(1-fluoro-cyclobutyl)quinoline-4-carboxamide]	46	
N#CCOc1ccc2nccc(C(=O)NCC(=O)N3CSC[C@H]3C#N)c2c1 [Example 10, (R)-6-(Cyanomethoxy)-N-(2-(4-cyanothiazolidin-3-yl)-2-oxoethyl)quinoline-4-carboxamide]	32	
CC(F)(F)COc1ccc2nccc(C(=O)NCC(=O)N3CSC[C@H]3C#N)c2c1 [Example 11, (R)—N-(2-(4-Cyanothiazolidin-3-yl)-2-oxoethyl)-6-(2,2-difluoropropoxy)quinoline-4-carboxamide]	290	
N#C[C@@H]1CSCN1C(=O)CNC(=O)c1ccnc2ccc(CN3CCOCC3)cc12 [Example 24, (R)—N-(2-(4-Cyanothiazolidin-3-yl)-2-oxoethyl)-6-(morpholino-methyl)quinoline-4-carboxamide]	1000	0.33
N#C[C@@H]1CSCN1C(=O)CNC(=O)c1ccnc2ccc(CC3CCOCC3)cc12 [Example 56, (R)—N-(2-(4-Cyanothiazolidin-3-yl)-2-oxoethyl)-6-((tetrahydro-2H-pyran-4-yl)methyl)quinoline-4-carboxamide]	500	
N#C[C@@H]1CSCN1C(=O)CNC(=O)c1ccnc2ccc([C@H]3CC[C@H](C#N)CC3)cc12 (single isomer, unassigned) [Example 54, 6-((1r,4R*)-4-Cyanocyclohexyl)-N-(2-((R)-4-cyanothiazolidin-3-yl)-2-oxoethyl)quinoline-4-carboxamide]	620	
Cc1cc(C(C)c2ccc3nccc(C(=O)NCC(=O)N4CSC[C@H]4C#N)c3c2)no1 (mixture of isomers) [Example 46, N-(2-((R)-4-Cyanothiazolidin-3-yl)-2-oxoethyl)-6-((RS)-1-(5-methylisoxazol-3-yl)ethyl)quinoline-4-carboxamide]	80	0.13
N#C[C@@H]1CSCN1C(=O)CNC(=O)c1ccnc2ccc(C3(c4ncccc4F)CC3)cc12 [Example 44, (R)—N-(2-(4-Cyanothiazolidin-3-yl)-2-oxoethyl)-6-(1-(3-fluoropyridin-2-yl)cyclopropyl)quinoline-4-carboxamide]	65	0.14
N#C[C@@H]1CSCN1C(=O)CNC(=O)c1ccnc2ccc(COCC(F)F)cc12 [Example 36, (R)—N-(2-(4-Cyanothiazolidin-3-yl)-2-oxoethyl)-6-((2,2-difluoroethoxy)methyl)quinoline-4-carboxamide]	170	
N#C[C@@H]1CSCN1C(=O)CNC(=O)c1ccnc2ccc(OCC3CC3)cc12 [Example 5, (R)—N-(2-(4-Cyanothiazolidin-3-yl)-2-oxoethyl)-6-(cyclopropyl-methoxy)quinoline-4-carboxamide]	400	
CO[C@H]1C[C@](F)(c2ccc3nccc(C(=O)NCC(=O)N4CSC[C@H]4C#N)c3c2)C1 (single isomer, unassigned) [Example 62, N-(2-((R)-4-Cyanothiazolidin-3-yl)-2-oxoethyl)-6-((1r,3R*)-1-fluoro-3-methoxycyclobutyl)quinoline-4-carboxamide]	520	0.11
COCCCc1ccc2nccc(C(=O)NCC(=O)N3CSC[C@H]3C#N)c2c1 [Example 81, (R)—N-(2-(4-cyanothiazolidin-3-yl)-2-oxoethyl)-6-(3-methoxypropyl)quinoline-4-carboxamide]	62	
N#C[C@@H]1CSCN1C(=O)CNC(=O)c1ccnc2ccc([C@H]3CC[C@H](C#N)CC3)cc12 (single isomer, unassigned) [Example 55, 6-((1r,4R*)-4-Cyanocyclohexyl)-N-(2-((R)-4-cyanothiazolidin-3-yl)-2-oxoethyl)quinoline-4-carboxamide]	330	
N#C[C@@H]1CSCN1C(=O)CNC(=O)c1ccnc2ccc(OCCF)cc12 [Example 74, (R)—N-(2-(4-Cyanothiazolidin-3-yl)-2-oxoethyl)-6-(2-fluoroethoxy)-quinoline-4-carboxamide]	83	
CCCOc1ccc2nccc(C(=O)NCC(=O)N3CSC[C@H]3C#N)c2c1 [Example 73, (R)—N-(2-(4-Cyanothiazolidin-3-yl)-2-oxoethyl)-6-propoxyquinoline-4-carboxamide]	160	

The remaining lines, values ahead:

IC50 [1] [nM]	Kd [2] [nM]	Structure (SMILES)
170		N#C[C@@H]1CSCN1C(=O)CNC(=O)c1ccnc2ccc(COC3CC3)cc12 [Example 37, (R)—N-(2-(4-Cyanothiazolidin-3-yl)-2-oxoethyl)-6-(cyclopropoxy-methyl)quinoline-4-carboxamide]
130		Cc1cc(C2(c3ccc4nccc(C(=O)NCC(=O)N5CSC[C@H]5C#N)c4c3)CC2)on1 [Example 50, (R)—N-(2-(4-Cyanothiazolidin-3-yl)-2-oxoethyl)-6-(1-(3-methylisoxazol-5-yl)cyclopropyl)quinoline-4-carboxamide]
290	0.3	N#C[C@@H]1CSCN1C(=O)CNC(=O)c1ccnc2ccc(Cn3cccn3)cc12 [Example 80, (R)-6-((1H-Pyrazol-1-yl)methyl)-N-(2-(4-cyanothiazolidin-3-yl)-2-oxoethyl)quinoline-4-carboxamide]
870		CC1(C)CC(Oc2ccc3nccc(C(=O)NCC(=O)N4CSC[C@H]4C#N)c3c2)CCO1 (mixture of isomers) [Example 9, N-(2-((R)-4-Cyanothiazolidin-3-yl)-2-oxoethyl)-6-(((RS)-2,2-dimethyltetrahydro-2H-pyran-4-yl)oxy)quinoline-4-carboxamide]
48		COCCc1ccc2nccc(C(=O)NCC(=O)N3CSC[C@H]3C#N)c2c1 [Example 82, (R)—N-(2-(4-cyanothiazolidin-3-yl)-2-oxoethyl)-6-(2-methoxyethyl)quinoline-4-carboxamide]
790		C#CC1(c2ccc3nccc(C(=O)NCC(=O)N4CSC[C@H]4C#N)c3c2)CCOCC1 [Example 57, (R)—N-(2-(4-Cyanothiazolidin-3-yl)-2-oxoethyl)-6-(4-ethynyl-tetrahydro-2H-pyran-4-yl)quinoline-4-carboxamide]
240	0.22	N#C[C@@H]1CSCN1C(=O)CNC(=O)c1ccnc2ccc(C3(c4ccc(Cl)cn4)CC3)cc12 [Example 47, (R)-6-(1-(5-Chloropyridin-2-yl)cyclopropyl)-N-(2-(4-cyanothiazolidin-3-yl)-2-oxoethyl)quinoline-4-carboxamide]
910	0.4	COCCOCc1ccc2nccc(C(=O)NCC(=O)N3CSC[C@H]3C#N)c2c1 [Example 31, (R)—N-(2-(4-Cyanothiazolidin-3-yl)-2-oxoethyl)-6-((2-methoxyethoxy)-methyl)quinoline-4-carboxamide]
460		N#C[C@@H]1CSCN1C(=O)CNC(=O)c1ccnc2ccc(COC3CCOC3)cc12 (mixture of isomers) [Example 35, N-(2-((R)-4-Cyanothiazolidin-3-yl)-2-oxoethyl)-6-((((RS)-tetrahydrofuran-3-yl)oxy)methyl)quinoline-4-carboxamide]
140		CCOCc1ccc2nccc(C(=O)NCC(=O)N3CSC[C@H]3C#N)c2c1 [Example 27, (R)—N-(2-(4-cyanothiazolidin-3-yl)-2-oxoethyl)-6-(ethoxymethyl)-quinoline-4-carboxamide]
300	0.042	N#C[C@@H]1CSCN1C(=O)CNC(=O)c1ccnc2ccc(C3(F)CCOCC3)cc12 [Example 64, (R)—N-(2-(4-Cyanothiazolidin-3-yl)-2-oxoethyl)-6-(4-fluorotetrahydro-2H-pyran-4-yl)quinoline-4-carboxamide]
610		CO[C@H]1CC[C@@H](c2ccc3nccc(C(=O)NCC(=O)N4CSC[C@H]4C#N)c3c2)CC1 (single isomer, unassigned) [Example 79, N-(2-((R)-4-Cyanothiazolidin-3-yl)-2-oxoethyl)-6-((1r,4R*)-4-methoxycyclohexyl)quinoline-4-carboxamide]
